Patent US10898548B2, “Modulators of protein tyrosine phosphatase and uses thereof” (LEUVAS THERAPEUTICS, priority 2015, dated 2021)

Experiments:
human primary monocytes [1] = assay: static adhesion of fMLP-stimulated monocytes to ICAM-1; assay type: cell-based; parameters: adherent monocytes on ICAM-1: unit not given here
Experimental: We investigated the functional effect of PTPRG activation on integrin activation and mediated adhesion by chemoattractants in human primary monocytes and PMNs in a static and flow adhesion assays. Briefly, human primary monocytes or polymorphonuclear cells were suspended at 5×10^6/ml in standard adhesion buffer. Adhesion assays were performed on 18-well glass slides coated with 1 mg/ml human fibrinogen or with 1 μg/ml human ICAM-1 in PBS; 20 μl of cell suspension were added to the coated wells and stimulated for 1 min at 37° C. with 5 μl of fMLP, 0.05 μM final concentration. After rapid washing, adherent cells were fixed in ice-cold 1.5% glutaraldehyde in PBS, and still images of adherent cells in 0.2 mm^2 fields were acquired al 20× phase contrast magnification, NA 0.40, with a charge-coupled device camera (ICD-42B; Ikegami) connected to an inverted microscope (IX50; Olympus). Image acquisition and computer-assisted enumeration of adherent cells were performed with ImageJ (National Institute of Health).
We then investigated the functional effect of TAT-ICD on integrin activation and mediated adhesion by chemoattractants. Static adhesion assays were performed as described in Example 2. […] Data are mean number of adherent cells in 5 experiments in triplicate.
To evaluate whether JAK2 mediates chemoattractant-induced adhesion of human monocytes to beta-2 integrin substrates human monocytes were treated control buffer or P1 or with the three JAK inhibitors. Briefly, human monocytes were treated with buffer (CTRL=control), or 40 μM P1 or P1-TKIP peptides, 100 μM AG490 or 200 μM WHI-P154 for 1 hour at 37° C. and stimulated with 50 nM fMLP for 60 sec.; data are mean and standard deviation (SD) of 6 experiments in triplicate.
Human primary monocytes were isolated from buffy coats from healthy donors and pre-incubated for 30 minutes at room temperature with our without 0.075 micromolar PTPX. Standard adhesion assays on ICAM-1 coated glass slides. Cell suspensions were added to the coated wells for 1 minute, stimulated for 1 minute at 37° C. with […] fMLP. Non-adherent cells were washed away and adherent cells were fixed in ice-cold 1.5% glutaraldehyde in PBS and adherent cells were counted using computer assisted automatic quantification. Data are from a representative experiment and are the mean and standard deviation of 24 measurements per condition (Table 35).

JAK2 (pYpY1007/1008) = assay: p-JAK2 ELISA on monocytes; assay type: cell-based, human; settings: monocytes, Resting 100.0, in % (unit assumed)
From the text: (§1) JAK2 regulation by PTPRG as assessed through the high-throughput phospho-proteomics analysis evidenced that PTPRG activation (Example 4, Table 9 and 10) provides a useful example of the exploitation of this analysis system for identification of targets and unexpected indications/uses for known and novel agents that regulate the phoshoproteome. […] Furthermore, the capability of fMLP to trigger JAKs activation has never been observed. The results described in Example 4 unexpectedly implicate JAK2 de-phosphorylation by PTPRG as playing a role in the anti-adhesive role of PTPRG on monocytes. To test this system-generated hypothesis we first set out to define the role of JAK2 in fMLP-triggered rapid adhesion in monocytes. Time course experiments, either performed with ELISA assay or Western Blot. Briefly, purified human monocytes were treated with buffer (resting) or with 50 nM fMLP for the indicated times (Table 12), and the phosphorylation was assessed by p-Jak2 elisa and Western Blot analysis. The JAK2 activation was determined with Elisa Kit JAK2 (pYpY1007/1008) (Invitrogen). Briefly, cells were stimulated with agonist and lysed following manufacturer's protocol; levels of phospho-JAK2 were quantified (absorbance at 450 nm) with a micro-well plate reader (Victor™ X5 Multilabel Plate Reader, Perkin Elmer). For Western blot analysis, cells were lysed in ice-cold 1% Nonidet P-40 buffer, containing phosphatase inhibitors and complete protease inhibitor cocktail (Roche). Total cell lysates were quantified by Bradford assay (Bio-Rad). Equal amounts of total lysates or of isolated membranes (as described in Example 1) were subjected to 10% SDS-PAGE and then blotted. After incubation with anti-PTPRG, anti gp91^Phox, anti phospho-JAK2, anti JAK2 and HRP-linked secondary antibodies (GE Healthcare), immunoreactive bands were visualized by ECL detection (EMD Millipore). Intensities of band signals were quantified by densitometric analysis (Quantity One, Bio-Rad) by using ImageQuant Las4000. Data are mean value of three experiments; the relative ratio of the band intensity of phosphor-JAK2 was normalized to the level of JAK2 band intensities.
Briefly, p-JAK2 ELISA assay on human monocytes treated with buffer (CTRL=control), 50 μM P1-WD, P1 or P1-WD scrambled peptides (Table 17), or with buffer (CTRL=control), 0.5 uM TAT-ICD or 50 μM TAT peptide (Table 18) for 1 hour at 37° C. and stimulated with 50 nM fMLP for 90 sec. Shown are percentages of fold increases over the control; mean values of 3 experiments in triplicate.

JAK2 = biological target: T1, JAK2 (Homo sapiens, UniProt O60674); assay: phospho-JAK2 Western Blot on monocytes; assay type: cell-based; settings: monocytes, Resting 20.2
T1 construct: endogenous in cells; host or cells: human primary monocytes
T1 sequence (O60674 whole entry): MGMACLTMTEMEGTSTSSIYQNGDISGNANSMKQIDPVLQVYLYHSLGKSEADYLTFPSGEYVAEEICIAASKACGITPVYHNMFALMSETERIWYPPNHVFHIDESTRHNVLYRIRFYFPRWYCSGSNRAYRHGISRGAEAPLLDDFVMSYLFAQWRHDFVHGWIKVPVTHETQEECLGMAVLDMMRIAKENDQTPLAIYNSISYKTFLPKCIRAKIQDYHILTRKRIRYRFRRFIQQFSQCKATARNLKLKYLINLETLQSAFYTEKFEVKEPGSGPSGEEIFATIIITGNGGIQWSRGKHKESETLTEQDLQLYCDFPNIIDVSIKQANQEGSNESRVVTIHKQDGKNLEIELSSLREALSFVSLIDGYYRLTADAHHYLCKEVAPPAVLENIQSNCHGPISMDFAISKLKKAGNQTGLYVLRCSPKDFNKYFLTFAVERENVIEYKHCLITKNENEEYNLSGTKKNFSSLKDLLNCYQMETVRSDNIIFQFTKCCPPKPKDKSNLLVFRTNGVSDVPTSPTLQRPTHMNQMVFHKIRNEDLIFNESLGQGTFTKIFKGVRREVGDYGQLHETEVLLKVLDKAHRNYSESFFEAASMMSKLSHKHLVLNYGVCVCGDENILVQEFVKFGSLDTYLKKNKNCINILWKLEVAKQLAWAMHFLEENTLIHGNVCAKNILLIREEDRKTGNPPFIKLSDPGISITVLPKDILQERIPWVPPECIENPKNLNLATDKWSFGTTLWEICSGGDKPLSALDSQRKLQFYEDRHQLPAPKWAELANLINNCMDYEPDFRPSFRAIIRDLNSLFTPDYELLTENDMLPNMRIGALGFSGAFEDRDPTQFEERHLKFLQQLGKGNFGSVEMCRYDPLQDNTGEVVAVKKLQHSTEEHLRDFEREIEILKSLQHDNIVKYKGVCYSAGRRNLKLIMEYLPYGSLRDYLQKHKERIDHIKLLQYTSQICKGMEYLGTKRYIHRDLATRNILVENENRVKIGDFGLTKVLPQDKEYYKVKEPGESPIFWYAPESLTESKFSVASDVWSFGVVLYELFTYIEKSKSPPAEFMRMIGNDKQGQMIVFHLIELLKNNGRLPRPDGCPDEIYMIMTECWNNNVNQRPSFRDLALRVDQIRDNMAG
From the text: as §1
To evaluate whether JAK2 mediates fMLP-triggered rapid adhesion in human monocytes, we tested the capability of three JAK inhibitors, AG490, WHI-P154 and P1-TKIP peptide, to block adhesion triggering. Briefly, Monocytes were treated with buffer (resting and Control=CTRL), 100 μM AG490, 40 μM P1 or P1-TKIP peptides, or 200 μM WHI-P154 for 1 hour at 37° C. and stimulated with 50 nM fMLP for 180 sec. Cell lysates were probed with anti phospho-JAK2 and with anti JAK2. Western Blot immuoreactive band quantification; the relative ratio of the band intensity of phospho-JAK2 was normalized to the level of JAK2 band intensities; mean values of three experiments (Table 13).
The impact of TAT-ICD and P1-WD on JAK2 activation by chemoattractants was also evaluated by Western Blot analysis. Briefly, monocytes were treated with buffer (Resting, CTRL), 0.5 uM TAT-ICD, 50 μM TAT peptide, 50 μM P1-WD, P1 or P1-WD scrambled peptides for 1 hour at 37° C. and stimulated with 50 nM fMLP for 180 sec (the resting cells were not stimulated with fMLP). Total lysates were probed with anti phospho-JAK2 or with anti JAK. Western Blot immunoreactive bands were quantified and the relative ratio of the band intensity of phospho-JAK2 was normalized to the level of JAK2 band intensities; data are mean value and standard deviation of three experiments (Table 19).

PTPRG = assay: in vitro phosphatase activity (pNPP) on membranes from human primary monocytes; assay type: biochemical; settings: orthovanadate treatment
Experimental: We first tested the biochemical activity of the fusion peptide by performing in vitro assays of phosphatase activity on purified membranes isolated from human primary monocytes compared to membranes isolated from human primary polymorphonuclear cells (PMNs). Human primary monocytes and polymorphonuclear (PMNs) cells were isolated from whole blood of healthy donors. Purity of monocyte preparation was evaluated by flow cytometry after staining with fluorescein isothiocyanate (FITC)-conjugated anti-CD14 antibody and was more than 95%. Isolated cells were kept at 37° C. in standard adhesion buffer (PBS, 1 mM CaCl2, 1 mM MgCl2, 10% FBS, pH 7.2) and used within 1 h.
The phosphatase activity in membrane fractions isolated from human monocytes and PMNs was assessed. […] Cells were then sonicated twice (6 sec, 15% W) and centrifuged at 2000 rpm for 10 minutes. The supernatants were collected and centrifuged at 28000 rpm for 60 minutes. After centrifugation, the supernatants were discarded, and the membrane pellets were dissolved in 20 mM tris pH 7.4. Equal amount of membrane fractions were added to pNPP buffer containing 20 mM tris, 10 mM DTT and 2 mM pNPP. Following, DMSO and peptides were added. After 30 minutes of incubation, levels of de-phosphorylation, in presence or absence of orthovanadate, were measured at 405 nm by a plate reader. Values are absorbance at 405 nn shown as percent fold increase over the blank; mean values of three experiments are shown. *p<0.001 vs vehicle (DMSO).

human primary monocytes [2] = assay: static adhesion of fMLP-stimulated monocytes to ICAM-1; assay type: cell-based; parameters: unit not given here; settings: 0.075 micromolar PTPX, 30 minutes; 50 nM fMLP; Control 212.8

Compound: fMLP
- increase in monocyte adhesion to ICAM-1 (human primary monocytes [1]; stimulation with fMLP vs no agonist): approximately 10 fold
- phospho-JAK2 level, ELISA (JAK2 (pYpY1007/1008); 50 nM fMLP 90″): 107.3
- phospho-JAK2 level, ELISA (JAK2 (pYpY1007/1008); 50 nM fMLP 120″): 128.3
- phospho-JAK2 level, ELISA (JAK2 (pYpY1007/1008); 50 nM fMLP 180″): 155.7
- phospho-JAK2 band intensity normalized to JAK2, Western Blot (JAK2; 50 nM fMLP 90″): 37.8
- phospho-JAK2 band intensity normalized to JAK2, Western Blot (JAK2; 50 nM fMLP 120″): 46.7
- phospho-JAK2 band intensity normalized to JAK2, Western Blot (JAK2; 50 nM fMLP 180″): 58.5

Compound: [Na+].[Na+].[Na+].[O]=[V]([O-])([O-])[O-] [Orthovanadate, Na3VO4, reference compound]
- phosphatase activity elicited in membranes (PTPRG): completely prevented phosphatase activity

Compound: PTPx: external domain of PTPRG, amino acids 20-736, produced with a histidine tag
- adherent monocytes on ICAM-1 (human primary monocytes [1]; 0.075 micromolar PTPX, 30 minutes, No Agonist, Control 22.2): 3.4
- adherent monocytes on ICAM-1 (human primary monocytes [2]): 32.7
